In brackets after ≈: the same amount, converted by molar mass.
Tested on: S. aureus
Experiment: Antimicrobial activity MIC, microdilution whole cell assay, S. aureus
Format: cell-based
Conditions: Staphylococcus aureus; standard whole cell assay; read-out: MIC against S. aureus
Experimental: Assay Protocol for Antimicrobial Activity. Minimum inhibitory concentrations (MICs) were determined using the microdilution method in 96-well format plates. Compounds were suspended in DMSO at 5 or 10 mg/ml and stored at 4° C. until used. They were diluted in Mueller-Hinton Broth (MHB) or Trypticase Soy Broth (TSB) and used for MIC determination. The range of concentrations tested was 64-0.0625 μg/ml final concentration using a two-fold dilution system.
The inoculum was prepared from cells grown on Trypticase Soy Agar (TSA) and incubated overnight at 35° C., 5 to 10 colonies were used to inoculate MHB or TSB broths, and the culture was incubated overnight at 35° C. The overnight culture was diluted 1:10, incubated for one hour at 35° C., diluted to the appropriate inoculum size and applied to the wells containing broth and test compound. Inoculum sizes were 1×10^5 to 5×10^5 CFU/ml. Strains used included P. aeruginosa VPAE1001, E. faecium V VEFA1001, E. faecium VanA VEFA1002, S. aureus VSAU1003, S. aureus MRSA VSAU1004, E. coli VEC05, and E. coli (arc-) VEC05.
Plates were incubated at 35° C. for 48 hours and MIC were recorded after 18 hours of incubation, for bacteria, and 48 for yeasts.

CON=Cc1ccc(/C=C/C(=O)NC[C@H]2CN(c3ccc(C(N)=O)c(F)c3)C(=O)O2)cc1
MIC: ~0.5 µg/mL (≈ 1.14 µM)

Source: US6562844B2, “Oxazolidinone combinatorial libraries, compositions and methods of preparation” (Pharmacia & Upjohn Company, priority 1998, dated 2003)
